Reference: patent publication US11135234B2, “Effective aminoglycoside antibiotic for multidrug-resistant bacteria” (MICROBIAL CHEMISTRY RESEARCH FOUNDATION, priority 2015, dated 2021)
In brackets after ≈: the same amount, converted by molar mass.

Tests used:
[1] = tested on: K. pneumoniae ATCC BAA-1705; assay: MIC, agar plate dilution method, K. pneumoniae ATCC BAA-1705; assay type: cell-based, Klebsiella pneumoniae; details: for minimal inhibitory concentration (MIC): K. pneumoniae ATCC BAA-1705, KPC-producing strain; for MIC: Klebsiella pneumoniae, ATCCBAA1705, K. pneumoniae ATCC BAA-1705, KPC-producing strain, read-out: minimal inhibitory concentration (MIC)
Summary of the method: (§1)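 MIC values, expressed in μg/mL, come from an agar plate dilution assay run as the Japan Society of Chemotherapy describes.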

P. aeruginosa PAO1/GN315 = assay: MIC, agar plate dilution method, P. aeruginosa PAO1/GN315; assay type: cell-based, Pseudomonas aeruginosa; details: for minimal inhibitory concentration (MIC): P. aeruginosa PAO1/GN315, AMK-resistant; for MIC: Pseudomonas aeruginosa, read-out: minimal inhibitory concentration (MIC), P. aeruginosa PAO1/GN315, AMK-resistant
Summary of the method: as §1

P. aeruginosa MSC01035 = assay: MIC, agar plate dilution method, P. aeruginosa MSC01035; assay type: cell-based, Pseudomonas aeruginosa; details: P. aeruginosa MSC01035, ABK-resistant; for MIC: Pseudomonas aeruginosa, read-out: minimal inhibitory concentration (MIC)
Summary of the method: as §1

S. marcescens TH-0447 = assay: MIC, agar plate dilution method, S. marcescens TH-0447; assay type: cell-based, Serratia marcescens; details: for minimal inhibitory concentration (MIC): S. marcescens TH-0447, AMK-resistant; for MIC: Serratia marcescens, TH0447, S. marcescens TH-0447, AMK-resistant, read-out: minimal inhibitory concentration (MIC)
Summary of the method: as §1

S. marcescens GN6944 = assay: MIC, agar plate dilution method, S. marcescens GN6944; assay type: cell-based, Serratia marcescens; details: S. marcescens GN6944, GM-resistant; for MIC: Serratia marcescens, read-out: minimal inhibitory concentration (MIC)
Summary of the method: as §1

[2] = tested on: A. baumannii ATCC BAA-1710; assay: MIC, agar plate dilution method, A. baumannii ATCC BAA-1710; assay type: cell-based, Acinetobacter baumannii; details: for minimal inhibitory concentration (MIC): A. baumannii ATCC BAA-1710, MDRA; for MIC: Acinetobacter baumannii, ATCCBAA1710, A. baumannii ATCC BAA-1710, MDRA, read-out: minimal inhibitory concentration (MIC)
Summary of the method: as §1

E. faecium ATCC19434 = assay: MIC, agar plate dilution method, E. faecium ATCC19434; assay type: cell-based, Enterococcus faecium; details: for minimal inhibitory concentration (MIC): E. faecium ATCC19434; for MIC: Enterococcus faecium, ATCC19434, E. faecium ATCC19434, read-out: minimal inhibitory concentration (MIC)
Summary of the method: as §1

S. aureus MF490 = assay: MIC, agar plate dilution method, S. aureus MF490; assay type: cell-based, Staphylococcus aureus; details: for minimal inhibitory concentration (MIC): S. aureus MF490, MRSA; for MIC: Staphylococcus aureus, MRSA, read-out: minimal inhibitory concentration (MIC)
Summary of the method: as §1

S. aureus RN4220/pMS520 = assay: MIC, agar plate dilution method, S. aureus RN4220/pMS520; assay type: cell-based, Staphylococcus aureus; details: for minimal inhibitory concentration (MIC): S. aureus RN4220/pMS520, MRSA; for MIC: Staphylococcus aureus, MRSA, read-out: minimal inhibitory concentration (MIC), S. aureus RN4220/pMS520, MRSA
Summary of the method: as §1

E. coli JM109/pMW218 = assay: MIC, agar plate dilution method, E. coli JM109/pMW218; assay type: cell-based, Escherichia coli; details: for minimal inhibitory concentration (MIC): E. coli JM109/pMW218, Sensitive bacterium; for MIC: Escherichia coli, JM109/PMW218, E. coli JM109/pMW218, Sensitive bacterium, read-out: minimal inhibitory concentration (MIC)
Summary of the method: as §1

P. aeruginosa PAO1 = assay: MIC, agar plate dilution method, P. aeruginosa PAO1; assay type: cell-based, Pseudomonas aeruginosa; details: for minimal inhibitory concentration (MIC): P. aeruginosa PAO1, Sensitive bacterium; for MIC: Pseudomonas aeruginosa, PAO1, P. aeruginosa PAO1, Sensitive bacterium, read-out: minimal inhibitory concentration (MIC)
Summary of the method: as §1

P. aeruginosa MSC17707 = assay: MIC, agar plate dilution method, P. aeruginosa MSC17707; assay type: cell-based, Pseudomonas aeruginosa; details: for minimal inhibitory concentration (MIC): P. aeruginosa MSC17707, AMK-resistant; for MIC: Pseudomonas aeruginosa, MSC17707, P. aeruginosa MSC17707, AMK-resistant, read-out: minimal inhibitory concentration (MIC)
Summary of the method: as §1

[3] = tested on: K. pneumoniae ATCC BAA-2146; assay: MIC, agar plate dilution method, K. pneumoniae ATCC BAA-2146; assay type: cell-based, Klebsiella pneumoniae; details: for minimal inhibitory concentration (MIC): K. pneumoniae ATCC BAA-2146, NDM-producing strain; for MIC: Klebsiella pneumoniae, ATCCBAA2146, K. pneumoniae ATCC BAA-2146, NDM-producing strain, read-out: minimal inhibitory concentration (MIC)
Summary of the method: as §1

S. aureus RN4220 = assay: MIC, agar plate dilution method, S. aureus RN4220; assay type: cell-based, Staphylococcus aureus; details: for minimal inhibitory concentration (MIC): S. aureus RN4220, Sensitive bacterium; for MIC: Staphylococcus aureus, RN4220, S. aureus RN4220, Sensitive bacterium, read-out: minimal inhibitory concentration (MIC)
Summary of the method: as §1

SMILES	minimal inhibitory concentration (MIC) [1] [µg/mL]	minimal inhibitory concentration (MIC) (P. aeruginosa PAO1/GN315) [µg/mL]	minimal inhibitory concentration (MIC) (P. aeruginosa MSC01035) [µg/mL]	minimal inhibitory concentration (MIC) (S. marcescens TH-0447) [µg/mL]	minimal inhibitory concentration (MIC) (S. marcescens GN6944) [µg/mL]	minimal inhibitory concentration (MIC) [2] [µg/mL]	MIC [1] [µg/mL]	MIC (P. aeruginosa PAO1/GN315) [µg/mL]	MIC (P. aeruginosa MSC01035) [µg/mL]	MIC (S. marcescens TH-0447) [µg/mL]	MIC (S. marcescens GN6944) [µg/mL]	MIC [2] [µg/mL]	MIC (E. faecium ATCC19434) [µg/mL]	MIC (S. aureus MF490) [µg/mL]	MIC (S. aureus RN4220/pMS520) [µg/mL]	MIC (E. coli JM109/pMW218) [µg/mL]	MIC (P. aeruginosa PAO1) [µg/mL]	MIC (P. aeruginosa MSC17707) [µg/mL]	MIC [3] [µg/mL]	MIC (S. aureus RN4220) [µg/mL]	also measured
CN[C@@H]1[C@@H](O[C@H]2O[C@H](CO)[C@@H](NC(CN)CN)[C@H](O)[C@H]2O)O[C@H]2C[C@@H](N)[C@@H](O[C@H]3[C@@H](O)[C@@H](O)[C@H](N)C[C@@H]3N)O[C@@H]2[C@@H]1O [Compound S1-i, 4″-N-(1,3-diaminopropan-2-yl)-5-epiapramycin]	1 (≈ 1.63 µM)	4 (≈ 6.54 µM)	4 (≈ 6.54 µM)	8 (≈ 13.1 µM)	4 (≈ 6.54 µM)	4 (≈ 6.54 µM)	–	–	–	–	–	–	–	–	–	–	–	–	–	–	minimal inhibitory concentration (MIC) (E. faecium ATCC19434): 4 µg/mL (≈ 6.54 µM); minimal inhibitory concentration (MIC) (S. aureus MF490): 4 µg/mL (≈ 6.54 µM); minimal inhibitory concentration (MIC) (S. aureus RN4220/pMS520): 2 µg/mL (≈ 3.27 µM); minimal inhibitory concentration (MIC) (E. coli JM109/pMW218): 1 µg/mL (≈ 1.63 µM); minimal inhibitory concentration (MIC) (P. aeruginosa PAO1): 2 µg/mL (≈ 3.27 µM); minimal inhibitory concentration (MIC) (P. aeruginosa MSC17707): 2 µg/mL (≈ 3.27 µM); minimal inhibitory concentration (MIC) [3]: 2 µg/mL (≈ 3.27 µM); minimal inhibitory concentration (MIC) (S. aureus RN4220): 2 µg/mL (≈ 3.27 µM)
CN[C@@H]1[C@@H](O[C@H]2O[C@H](CO)[C@@H](NC(=N)N)[C@H](O)[C@H]2O)O[C@H]2C[C@@H](N)[C@@H](O[C@H]3[C@@H](O)[C@@H](O)[C@H](N)C[C@@H]3N)O[C@@H]2[C@@H]1O [Compound S1-j, 4″-deamino-5-epi-4″-guanidinoapramycin]	1 (≈ 1.72 µM)	4 (≈ 6.88 µM)	4 (≈ 6.88 µM)	4 (≈ 6.88 µM)	4 (≈ 6.88 µM)	4 (≈ 6.88 µM)	–	–	–	–	–	–	–	–	–	–	–	–	–	–	minimal inhibitory concentration (MIC) (E. faecium ATCC19434): 8 µg/mL (≈ 13.8 µM); minimal inhibitory concentration (MIC) (S. aureus MF490): 4 µg/mL (≈ 6.88 µM); minimal inhibitory concentration (MIC) (S. aureus RN4220/pMS520): 1 µg/mL (≈ 1.72 µM); minimal inhibitory concentration (MIC) (E. coli JM109/pMW218): 0.5 µg/mL (≈ 0.86 µM); minimal inhibitory concentration (MIC) (P. aeruginosa PAO1): 2 µg/mL (≈ 3.44 µM); minimal inhibitory concentration (MIC) (P. aeruginosa MSC17707): 4 µg/mL (≈ 6.88 µM); minimal inhibitory concentration (MIC) [3]: 1 µg/mL (≈ 1.72 µM); minimal inhibitory concentration (MIC) (S. aureus RN4220): 2 µg/mL (≈ 3.44 µM)
CNC1C(O[C@H]2OC(CO)[C@@H](NC(=N)N)[C@H](O)C2O)O[C@H]2CC(N)[C@@H](O[C@@H]3C(N)C[C@@H](N)C(O)[C@H]3F)OC2C1O (stereo partly drawn) [Compound S1-k, 4″-deamino-5-deoxy-5-epi-5-fluoro-4″-guanidinoapramycin]	–	–	–	–	–	–	1 (≈ 1.71 µM)	8 (≈ 13.7 µM)	8 (≈ 13.7 µM)	8 (≈ 13.7 µM)	4 (≈ 6.85 µM)	8 (≈ 13.7 µM)	16 (≈ 27.4 µM)	4 (≈ 6.85 µM)	1 (≈ 1.71 µM)	0.5 (≈ 0.857 µM)	8 (≈ 13.7 µM)	8 (≈ 13.7 µM)	1 (≈ 1.71 µM)	1 (≈ 1.71 µM)	–
CNC1C(CO)OC(OC2OC3CC(N)C(OC4C(N)CC(N)CC4O)OC3C(O)C2NC)C(O)C1O (stereo not drawn) [Compound S1-l, 6-deoxy-5-epi-4″-N-methylapramycin]	1 (≈ 1.86 µM)	4 (≈ 7.44 µM)	4 (≈ 7.44 µM)	4 (≈ 7.44 µM)	2 (≈ 3.72 µM)	4 (≈ 7.44 µM)	–	–	–	–	–	–	–	–	–	–	–	–	–	–	minimal inhibitory concentration (MIC) (E. faecium ATCC19434): 16 µg/mL (≈ 29.8 µM); minimal inhibitory concentration (MIC) (S. aureus MF490): 8 µg/mL (≈ 14.9 µM); minimal inhibitory concentration (MIC) (S. aureus RN4220/pMS520): 1 µg/mL (≈ 1.86 µM); minimal inhibitory concentration (MIC) (E. coli JM109/pMW218): 0.5 µg/mL (≈ 0.93 µM); minimal inhibitory concentration (MIC) (P. aeruginosa PAO1): 4 µg/mL (≈ 7.44 µM); minimal inhibitory concentration (MIC) (P. aeruginosa MSC17707): 4 µg/mL (≈ 7.44 µM); minimal inhibitory concentration (MIC) [3]: 0.5 µg/mL (≈ 0.93 µM); minimal inhibitory concentration (MIC) (S. aureus RN4220): 2 µg/mL (≈ 3.72 µM)
CNC1C(O[C@H]2OC(CO)[C@@H](NCCN)[C@H](O)C2O)O[C@H]2CC(N)[C@@H](O[C@@H]3C(N)C[C@@H](N)C[C@H]3O)OC2C1O (stereo partly shown) [Compound S1-m, 6-deoxy-4″-N-(2-aminoethyl)-5-epiapramycin]	–	–	–	–	–	–	2 (≈ 3.53 µM)	8 (≈ 14.1 µM)	8 (≈ 14.1 µM)	4 (≈ 7.06 µM)	8 (≈ 14.1 µM)	4 (≈ 7.06 µM)	16 (≈ 28.2 µM)	8 (≈ 14.1 µM)	2 (≈ 3.53 µM)	1 (≈ 1.76 µM)	4 (≈ 7.06 µM)	8 (≈ 14.1 µM)	1 (≈ 1.76 µM)	2 (≈ 3.53 µM)	–
CNC1C(O[C@H]2OC(CO)[C@@H](NCCCN)[C@H](O)C2O)O[C@H]2CC(N)[C@@H](O[C@@H]3C(N)C[C@@H](N)C[C@H]3O)OC2C1O (stereo partly shown) [Compound S1-n, 6-deoxy-4″-N-(3-aminopropyl)-5-epiapramycin]	–	–	–	–	–	–	1 (≈ 1.72 µM)	4 (≈ 6.89 µM)	4 (≈ 6.89 µM)	4 (≈ 6.89 µM)	4 (≈ 6.89 µM)	4 (≈ 6.89 µM)	8 (≈ 13.8 µM)	8 (≈ 13.8 µM)	2 (≈ 3.44 µM)	1 (≈ 1.72 µM)	4 (≈ 6.89 µM)	8 (≈ 13.8 µM)	1 (≈ 1.72 µM)	2 (≈ 3.44 µM)	–
CNC1C(O[C@H]2OC(CO)[C@@H](NC(=N)N)[C@H](O)C2O)O[C@H]2CC(N)[C@@H](O[C@@H]3C(N)C[C@@H](N)C[C@H]3O)OC2C1O (stereo partly drawn) [Compound S1-o, 4″-deamino-6-deoxy-5-epi-4″-guanidinoapramycin]	–	–	–	–	–	–	1 (≈ 1.77 µM)	4 (≈ 7.07 µM)	4 (≈ 7.07 µM)	4 (≈ 7.07 µM)	2 (≈ 3.54 µM)	4 (≈ 7.07 µM)	8 (≈ 14.1 µM)	2 (≈ 3.54 µM)	1 (≈ 1.77 µM)	0.5 (≈ 0.884 µM)	2 (≈ 3.54 µM)	4 (≈ 7.07 µM)	0.5 (≈ 0.884 µM)	1 (≈ 1.77 µM)	–
CNC1C(O[C@H]2OC(C)[C@@H](NC(CN)CN)[C@H](O)C2O)O[C@H]2CC(N)[C@@H](O[C@H]3CC(O)[C@H](N)CC3N)OC2C1O (stereo partly shown) [Compound S1-p, 4″-N-(1,3-diaminopropan-2-yl)-5,6″-dideoxyapramycin]	–	–	–	–	–	–	1 (≈ 1.73 µM)	4 (≈ 6.9 µM)	4 (≈ 6.9 µM)	8 (≈ 13.8 µM)	4 (≈ 6.9 µM)	8 (≈ 13.8 µM)	4 (≈ 6.9 µM)	2 (≈ 3.45 µM)	1 (≈ 1.73 µM)	1 (≈ 1.73 µM)	2 (≈ 3.45 µM)	4 (≈ 6.9 µM)	1 (≈ 1.73 µM)	1 (≈ 1.73 µM)	–
